# Tests used:
# [1] = test system: CD34+ cells; assay: FACS staining after transduction with ALD (ABCD1)-expressing lentivirus; type: cell-based, human; conditions: ABCD1 lentivirus MOI 25
# Method: (§1) One vial of CD34+ cells (AllCells) were thawed by incubating at 37° C. for 1-2 minutes and contents were transferred to 10 mL Stem Cell Growth Media (hereafter referred to as SCGM) in a 15-mL conical tube. Cells were spun for 5 minutes at 1500 RPM in a standard tabletop centrifuge, resuspended in 10 mL SCGM and counted on a hemacytometer. A volume correlating with an appropriate number of cells was transferred to a fresh 15-mL conical tube, and again spun for 5 minutes at 1500 RPM. Cells were resuspended to the desired cell concentration in SCGM+1× cytokines (100 ng/mL SCF, 100 ng/mL TPO, 100 ng/mL FltL, and 30 ng/mL IL-3), and plated on a sterile non-adherent surface at 37° C. in a standard humidified tissue culture incubator (5% CO2).
# (§2) Pre-stimulated cells (Example 1) were counted after 18-24 hours of culture. The cells were collected and spun for 5 minutes at 1500 RPM. 1.2×10^6 pre-stimulated CD34^+ cells were resuspended in 60 uL 10× cytokines (1000 ng/mL SCF, 1000 ng/mL TPO, 1000 ng/mL FltL, and 300 ng/mL IL-3), 7.8 uL protamine sulfate, 111 uL viral supernatant, and 361.2 uL SCGM. 90 uL cell/virus suspension (about 200,000 cells) was added to each well of a standard non-adherent 96-well plate. dmPGE2 was added during this viral transduction step at a final concentration of 100 uM, 50 uM, 25 uM, 12.5 uM, 1 uM, or 0 uM.
# (§3) After 24 hours of culture with virus and dmPGE2, cells were washed prior to subsequent functional validation assays. Washing was performed by transferring cells to a 96-well U-bottom plate and spinning for 5 minutes at 1500 RPM in a standard tabletop centrifuge. Media was aspirated and cells were resuspended in 200 uL SCGM. Cells were spun again for 5 minutes at 1500 RPM and media was aspirated. Cells were again resuspended in 200 uL SCGM then spun for 5 minutes at 1500 RPM, and again the media was aspirated. Particular functional validation assays are described below.
# (§4) Washed cells were resuspended in 200 uL SCGM+lx cytokines (as described in Example 1) and transferred to a standard 12-well non-adherent tissue culture plate containing an additional 800 uL SCGM+lx cytokines Cells were maintained for an additional 6 days in a standard humidified tissue culture incubator (5% CO2) and then subjected Vector Copy Number analysis (Example 5) and FACS analysis. For FACS analysis, cells were assayed for the presence of a virally-encoded transgene, green fluorescent protein (GFP). The frequency of the virally-labeled cells within the pool of cultured cells was quantified as the frequency of GFP+ cells within the population. The mean fluorescence intensity of labeled cells was quantified.
# (§5) Tables 3A-C indicate the dose-response of dmPGE2 in promoting viral transduction of CD34+ cells for three separate experiments. CD34+ cells were thawed and pre-stimulated with SCF, TPO, FltL, and IL3, then transduced (A) with GFP+ lentivirus at a multiplicity of infection of 25, (B) with GFP+ lentivirus at a multiplicity of infection of 5, or (C) transduced with an ALD (ABCD1)-expressing lentivirus at a multiplicity of infection of 25. Cells were exposed to dmPGE2 during the viral transduction step (24-48 hours of culture). Cells were then washed and analyzed by flow cytometry and PCR after approximately 1 week in culture. The percentage of cells positive for GFP (A, B) or ALD (C) via FACS staining is indicated, along with the mean fluorescent intensity (MFI) and vector copy number (VCN) (A, B).
# [2] = test system: CD34+ cells; assay: Vector Copy Number analysis (qRT-PCR, viral LTR vs human beta-actin) after GFP+ lentivirus transduction; type: cell-based
# Method: as §2, §3, §4
# Briefly, total genomic DNA was isolated from cells through standard protocols (for example, through DNEasy columns from Qiagen). Genomic DNA was subjected to quantitative real-time polymerase chain reaction (qRT-PCR) with TaqMan probes for viral LTR and human beta-actin. The Ct values for viral signal and beta-actin signal were normalized to a standardized control, and the number of viral copies per copy of beta actin were calculated. A linear relationship between the vector copy number and the mean fluorescence intensity (Example 4) was observed when a viral construct that encodes GFP was used.
# as §5
# [3] = test system: CD34+ cells; assay: 7-Day liquid culture, FACS analysis after transduction with GFP+ lentivirus; type: cell-based, human
# Method: as §1, §2
# Cells were incubated at 37° C. in a standard humidified tissue culture incubator (5% CO2).
# Aliquots of 10 mM dmPGE2 in DMSO were prepared from 1 mg previously processed dmPGE2 (Cayman Chemicals). Briefly, air was pipetted into the vial of dmPGE2 until methyl acetate was evaporated. 263 uL DMSO was added to the PGE2 remaining in the vial, and aliquots of 25 uL were added to 1.5 mL Eppendorf tubes and stored at −80° C. 10× working stock solutions were prepared by serial dilution of dmPGE2 in SCGM, and were then added to cells at appropriate working concentrations, according to Table 2. Cells were then incubated at 37° C. in a standard humidified tissue culture incubator (5% CO2).
# as §3, §4
# as §5, with “The percentage of cells positive for GFP (A, B) or ALD (C) via FACS staining is indicated, along with the mean fluorescent intensity (MFI) and vector copy number (VCN) (A, B).” left out
# [4] = dmPGE2 12.5 uM during transduction, GFP lentivirus MOI 5
# [5] = dmPGE2 12.5 uM during transduction, GFP lentivirus MOI 25
# [6] = dmPGE2 25 uM during transduction, GFP lentivirus MOI 5
# [7] = dmPGE2 25 uM during transduction, GFP lentivirus MOI 25
# [8] = dmPGE2 50 uM during transduction, GFP lentivirus MOI 5
# [9] = dmPGE2 50 uM during transduction, GFP lentivirus MOI 25
# [10] = dmPGE2 100 uM during transduction, GFP lentivirus MOI 5
# [11] = dmPGE2 100 uM during transduction, GFP lentivirus MOI 25
compound,measurement,setting,value
"CCCCC(C)(C)[C@H](O)/C=C/[C@H]1[C@H](O)CC(=O)[C@@H]1C/C=C\CCCC(=O)O [dmPGE2, 16,16-dimethyl PGE2]",% Positive (ALD),[1]; dmPGE2 1 uM during transduction (24-48 hours of culture),34.13%
same,% Positive (ALD),[1]; dmPGE2 12.5 uM during transduction (24-48 hours of culture),45.36%
same,% Positive (ALD),[1]; dmPGE2 25 uM during transduction (24-48 hours of culture),43.76%
same,% Positive (ALD),[1]; dmPGE2 50 uM during transduction (24-48 hours of culture),56.10%
same,% Positive (ALD),[1]; dmPGE2 100 uM during transduction (24-48 hours of culture),72.26%
same,VCN,[2]; [4],0.18
same,VCN,[2]; [5],1.5
same,VCN,[2]; [6],0.21
same,VCN,[2]; [7],1.7
same,VCN,[2]; [8],0.715
same,VCN,[2]; [9],2.2
same,VCN,[2]; [10],0.83
same,VCN,[2]; [11],3.55
same,% Positive (GFP),"[3]; dmPGE2 12.5 uM during transduction (24-48 hours of culture), GFP lentivirus MOI 5",17.84%
same,% Positive (GFP),"[3]; dmPGE2 12.5 uM during transduction (24-48 hours of culture), GFP lentivirus MOI 25",54.71%
same,MFI,[3]; [4],"530,218.50"
same,MFI,[3]; [5],"759,442.75"
same,% Positive (GFP),"[3]; dmPGE2 25 uM during transduction (24-48 hours of culture), GFP lentivirus MOI 5",18.69%
same,% Positive (GFP),"[3]; dmPGE2 25 uM during transduction (24-48 hours of culture), GFP lentivirus MOI 25",59.99%
same,MFI,[3]; [6],"562,428.00"
same,MFI,[3]; [7],"845,691.00"
same,% Positive (GFP),"[3]; dmPGE2 50 uM during transduction (24-48 hours of culture), GFP lentivirus MOI 5",36.80%
same,% Positive (GFP),"[3]; dmPGE2 50 uM during transduction (24-48 hours of culture), GFP lentivirus MOI 25",67.62%
same,MFI,[3]; [8],"656,703.50"
same,MFI,[3]; [9],"977,806.75"
same,% Positive (GFP),"[3]; dmPGE2 100 uM during transduction (24-48 hours of culture), GFP lentivirus MOI 5",42.97%
same,% Positive (GFP),"[3]; dmPGE2 100 uM during transduction (24-48 hours of culture), GFP lentivirus MOI 25",81.53%
same,MFI,[3]; [10],"732,716.25"
same,MFI,[3]; [11],"1,513,504.00"
